We go through one compound from patent US20110257242A1, “3-PHENYL-3-METHOXYPYRROLIDINE DERIVATIVES AS MODULATORS OF CORTICAL CATECHOLAMINERGIC NEUROTRANSMISSION” (NSAB, FILIAL AF NEUROSEARCH SWEDEN AB, SVERIGE, priority 2008, published 2011).

The test system of the assay is MK-801 pre-treated rats. The assay can be described thus: Locomotor activity in MK-801 pre-treated rats (antipsychotic activity model). The following applies: MK-801 0.7 mg/kg i.p., no test compound, recorded between 30 and 60 minutes.

Structures are written as SMILES.

Take `C[C@]12N[C@H](Cc3ccccc31)c1ccccc12` [MK-801]: the “Locomotor activity, MK-801 alone” value is given as 48068 counts/30 min.
